Assay results: patent US9101632B2, “Kinase inhibitors, prodrug forms thereof and their use in therapy” (AUCKLAND UNISERVICES LIMITED, priority 2009, dated 2015)
pIC50: −log10 of the molar value. Counter-ions that a name gives are not always drawn. Like-named read-outs stand apart in the source and are kept apart here.

Experiments:
SKOV3 cells = assay: Inhibition of cellular proliferation (sulforhodamine B staining); conditions: for SKOV3 HCR (Hypoxic Cytotoxicity Ratio): fold change in intra-experimental IC50, 4 hours anoxia relative to oxic only
A431 cells = assay: as above
[1] = Fragmentation rate constant of 1-electron reduced prodrugs by pulse radiolysis; assay type: physicochemical; conditions: formation of benzyl-type radicals absorbing in the 360-390 nm region
Description: The rate constants for fragmentation, kfrag, of the 1-electron reduced prodrugs can be measured using pulse radiolysis to observe the time-resolved formation of the absorption spectrum of the benzyl-type radical produced upon fragmentation of the radical anion.

H1975 tumours = conditions: for Drug related deaths / Weight Loss Nadir (%): H1975 xenograft, q3dx4, intraperitoneal; for Drug related deaths: lactate buffer pH 4; for Weight Loss Nadir (%): mean nadir relative to day 0 weight
p44/42 MAPK (Erk1/2) = assay: Inhibition of p44/42 MAPK (Erk1/2) phosphorylation in EGF-stimulated intact A431 cells (Western immunoblotting); assay type: cell-based, human; conditions: for downstream p44/42 MAPK(Erk 1/2) phosphorylation (Thr202/Tyr 204), result in words: 1 hour treatment
Description: (§1) A431 cells were seeded into 6 well plates (with αMEM+5% FCS). The following day, plates were washed once with serum-free medium and grown for 18 hours in serum-free medium (αMEM) before being exposed to a range of inhibitor or prodrug concentrations for 1 hour and then stimulated for 15 minutes with 100 ng/ml epidermal growth factor (EGF receptor ligand). Next cells were washed with ice cold PBS and lysed in modified RIPA buffer on ice (30 min). Lysates were vortexed and clarify by spinning before protein concentrations of samples was determined by BCA assay. […] All antibodies were diluted in 2% BSA TBS-Tween 0.1%. To detect phospho-EGFR (Tyr 1068) the monoclonal antibody (1:500; Cell Signalling #2234) was incubated overnight at 4° C. and binding was detected with goat-anti-Rabbit-IgG-HRP conjugated secondary antibody (1:5000; Santa Cruz #SC2054; 3 h RT). To detect downstream phospho-p44/42 MAPK(Erk 1/2) (Thr202/Tyr 204) the monoclonal antibody (Cell Signalling #4370) was used at a 1:500 dilution. The blot was then treated with Goat anti-rabbit IgG-HRP conjugated secondary antibody (Santa Cruz Biotechnology, Inc. sc-2054) for three hours at a ratio of 1:5000. To normalise for any inaccuracy in gel loading, each blot was probed with anti-β-actin antibody (Abacus ALS #MAB-1501R, 1:2000 dilution). The following day, the blot was treated with Goat anti-mouse IgG-HRP conjugated secondary antibody (Santa Cruz Biotechnology, Inc. sc-2055) for one hour at a 1:5000 ratio. Protein bands were visualized using Amersham ECL Plus Western Blotting Detection Reagent (GE Healthcare RPN2132). Densitometry was determined using Image J software. Values normalized to β-actin were plotted on SigmaPlot 11.0.

[2] = pulse radiolysis, determined against methylviologen
erbB1 (EGFR) = erbB1 (EGFR) (Homo sapiens, UniProt P00533); assay: Inhibition of erbB1 autophosphorylation in EGF-stimulated intact A431 cells (Western immunoblotting); assay type: cell-based; conditions: 1 hour treatment, phospho-EGFR (Tyr 1068), β-actin corrected
Chain of erbB1 (EGFR) (P00533 25-1210): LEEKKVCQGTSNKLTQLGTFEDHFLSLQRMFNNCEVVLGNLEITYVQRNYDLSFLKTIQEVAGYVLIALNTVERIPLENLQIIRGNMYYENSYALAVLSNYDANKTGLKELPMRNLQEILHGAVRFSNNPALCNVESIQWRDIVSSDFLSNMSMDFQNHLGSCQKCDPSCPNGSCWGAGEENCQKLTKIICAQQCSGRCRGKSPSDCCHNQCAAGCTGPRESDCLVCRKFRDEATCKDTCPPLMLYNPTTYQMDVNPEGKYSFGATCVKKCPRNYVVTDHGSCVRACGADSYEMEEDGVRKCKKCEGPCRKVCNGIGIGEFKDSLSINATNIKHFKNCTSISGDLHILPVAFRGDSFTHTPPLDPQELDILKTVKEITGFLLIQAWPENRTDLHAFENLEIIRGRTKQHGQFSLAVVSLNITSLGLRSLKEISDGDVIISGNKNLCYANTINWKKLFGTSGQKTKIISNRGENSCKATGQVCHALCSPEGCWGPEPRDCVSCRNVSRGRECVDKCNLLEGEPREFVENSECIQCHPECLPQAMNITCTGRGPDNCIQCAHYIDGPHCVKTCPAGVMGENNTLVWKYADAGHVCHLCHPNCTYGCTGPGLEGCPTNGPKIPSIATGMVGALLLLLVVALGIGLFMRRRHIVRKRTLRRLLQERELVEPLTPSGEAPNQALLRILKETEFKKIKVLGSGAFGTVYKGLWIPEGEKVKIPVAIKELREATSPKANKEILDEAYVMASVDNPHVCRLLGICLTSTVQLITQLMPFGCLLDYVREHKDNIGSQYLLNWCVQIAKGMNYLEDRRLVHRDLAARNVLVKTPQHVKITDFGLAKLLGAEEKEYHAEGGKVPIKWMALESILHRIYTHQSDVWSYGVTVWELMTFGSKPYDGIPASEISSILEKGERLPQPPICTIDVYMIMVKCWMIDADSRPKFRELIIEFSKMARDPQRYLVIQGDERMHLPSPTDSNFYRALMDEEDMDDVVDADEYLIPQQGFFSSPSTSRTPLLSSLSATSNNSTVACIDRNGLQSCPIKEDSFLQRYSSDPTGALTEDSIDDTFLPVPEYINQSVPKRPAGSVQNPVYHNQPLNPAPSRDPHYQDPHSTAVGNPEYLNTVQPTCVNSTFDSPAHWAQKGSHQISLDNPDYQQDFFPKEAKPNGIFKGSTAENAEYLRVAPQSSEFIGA
Description: as §1

H1975 cells = assay: Inhibition of cellular proliferation (sulforhodamine B staining); conditions: for H1975 HCR (Hypoxic Cytotoxicity Ratio): fold change in intra-experimental IC50, 4 hours anoxia relative to oxic only
A431 tumours = conditions: A431 xenograft, q3dx4, intraperitoneal; for Drug related deaths: lactate buffer pH 4; for TGD (Tumour Growth Delay): % increase in time to RTV4 relative to control; for Weight Loss Nadir (%): mean nadir relative to day 0 weight
[3] = read-out: Cellular Growth Inhibition IC50 SKOV3 Anoxic, initial 4 hours of the 24 hour exposure under anoxic conditions
[4] = read-out: Cellular Growth Inhibition IC50 SKOV3 Oxic, 24 hour exposure entirely under oxic conditions, washed, further 4 days
[5] = read-out: Cellular Growth Inhibition IC50 A431 Anoxic, initial 4 hours of the 24 hour exposure under anoxic conditions
[6] = read-out: Cellular Growth Inhibition IC50 A431 Oxic, 24 hour exposure entirely under oxic conditions, washed, further 4 days
[7] = read-out: Cellular Growth Inhibition IC50 H1975 Anoxic, initial 4 hours of the 24 hour exposure under anoxic conditions
[8] = read-out: Cellular Growth Inhibition IC50 H1975 Oxic, 24 hour exposure entirely under oxic conditions, washed, further 4 days

SMILES	pIC50 (SKOV3 cells; [3])	pIC50 (SKOV3 cells; [4])	pIC50 (A431 cells; [5])	pIC50 (A431 cells; [6])	kfrag./s^−1 rate constant for fragmentation [1] [s⁻¹]	Drug related deaths (H1975 tumours)	Weight Loss Nadir (%) (H1975 tumours)	E(1)/V 1-electron reduction potential [2] [V]	pIC50 (erbB1 (EGFR))	pIC50 (H1975 cells; [7])	pIC50 (H1975 cells; [8])	Drug related deaths (A431 tumours)	TGD (Tumour Growth Delay) (A431 tumours) [%]	Weight Loss Nadir (%) (A431 tumours)	SKOV3 HCR (Hypoxic Cytotoxicity Ratio) (SKOV3 cells)	downstream p44/42 MAPK(Erk 1/2) phosphorylation (Thr202/Tyr 204), result in words (p44/42 MAPK (Erk1/2))	H1975 HCR (Hypoxic Cytotoxicity Ratio) (H1975 cells)	further results
Cc1nc([N+](=O)[O-])c(C[N+](C)(C)C/C=C/C(=O)Nc2cc3c(Nc4ccc5c(cnn5Cc5cccc(F)c5)c4)ncnc3cn2)n1C (as salt: bromide) [Compound 14, (2E)-N-[(1,2-dimethyl-4-nitro-1H-imidazol-5-yl)methyl]-4-[(4-{[1-(3-fluorobenzyl)-1H-indazol-5-yl]amino}pyrido[3,4-d]pyrimidin-6-yl)amino]-N,N-dimethyl-4-oxo-2-buten-1-ammonium bromide]	–	–	–	–	–	–	–	–	–	–	–	–	–	–	–	–	–	melting point: 188 to 192 °C (dec.)
Cn1cnc([N+](=O)[O-])c1C[N+](C)(C)C/C=C/C(=O)Nc1cc2c(Nc3ccc(OCc4ccccn4)c(Cl)c3)ncnc2cn1 [Compound 15, (2E)-4-({4-[3-chloro-4-(2-pyridinylmethoxy)anilino]pyrido[3,4-d]pyrimidin-6-yl}amino)-N,N-dimethyl-N-[(1-methyl-4-nitro-1H-imidazol-5-yl)methyl]-4-oxo-2-buten-1-ammonium bromide]	6.22	3.80	6.52	5.00	60 ± 10	0	−9.4 ± 3.3	−0.423	5.28	6.37	4.59	–	–	–	–	–	–	growth delay of prodrug compared to its cognate kinase inhibitor, result in words (H1975 tumours; H1975 tumours, q3dx4): extended period of growth delay; pIC50 (p44/42 MAPK (Erk1/2); Homo sapiens, A-431, 1 hour treatment, read-out: IC50 p44/42 MAPK(Erk 1/2) phosphorylation (Thr202/Tyr 204)): 5.05
CN(C)C/C=C/C(=O)Nc1cc2c(Nc3ccc(Cl)c(Br)c3)ncnc2cn1 [Compound 5, (2E)-N-[4-(3-bromo-4-chloroanilino)pyrido[3,4-d]pyrimidin-6-yl]-4-(dimethylamino)-2-butenamide]	6.35	6.52	8.00	8.05	–	1	−8.5 ± 0.6	–	7.40	6.30	6.54	0	>250	−6.3 ± 4.5	0.9	coordinate loss	0.9	A431 HCR (Hypoxic Cytotoxicity Ratio) (A431 cells; fold change in intra-experimental IC50, 4 hours anoxia relative to oxic only): 1.0
Cn1cnc([N+](=O)[O-])c1C[N+](C)(C)C/C=C/C(=O)Nc1cc2c(Nc3ccc(Cl)c(Cl)c3)ncnc2cn1 [Compound 16, (2E)-4-{[4-(3,4-dichloroanilino)pyrido[3,4-d]pyrimidin-6-yl]amino}-N,N-dimethyl-N-[(1-methyl-4-nitro-1H-imidazol-5-yl)methyl]-4-oxo-2-buten-1-ammonium bromide]	6.28	4.40	7.82	6.48	60 ± 10	0	−10.1 ± 0.7	−0.418	–	6.40	4.49	–	–	–	–	–	–	–
CN(C)C/C=C/C(=O)Nc1cc2c(Nc3ccc(Br)c(Cl)c3)ncnc2cn1 [Compound 6, (2E)-N-[4-(4-bromo-3-chloroanilino)pyrido[3,4-d]pyrimidin-6-yl]-4-(dimethylamino)-2-butenamide]	6.26	6.70	8.30	8.30	–	–	–	–	7.60	6.66	6.82	0	>250	−1.5 ± 0.8	0.7	coordinate loss	0.7	–
Cn1cnc([N+](=O)[O-])c1C[N+](C)(C)C/C=C/C(=O)Nc1cc2c(Nc3ccc4c(cnn4Cc4cccc(F)c4)c3)ncnc2cn1 [Compound 13, (2E)-4-[(4-{[1-(3-fluorobenzyl)-1H-indazol-5-yl]amino}pyrido[3,4-d]pyrimidin-6-yl)amino]N,N-dimethyl-N-[(1-methyl-4-nitro-1H-imidazol-5-yl)methyl]-4-oxo-2-buten-1-ammonium bromide]	5.80	3.50	6.62	5.21	60 ± 10	0	−4.1 ± 2.5	−0.417	–	5.48	4.04	–	–	–	–	–	–	–
